Measurements published in patent US6399642B2, “Benzimidazole topoisomerase poisons” (Rutgers, The State University of New Jersey, priority 1998, dated 2002).

Biological target: T1, human topoisomerase I (Homo sapiens, UniProt P11387)
T1 construct: unnamed fusion partner (recombinant fusion protein); made in house
T1 sequence (P11387 1-765): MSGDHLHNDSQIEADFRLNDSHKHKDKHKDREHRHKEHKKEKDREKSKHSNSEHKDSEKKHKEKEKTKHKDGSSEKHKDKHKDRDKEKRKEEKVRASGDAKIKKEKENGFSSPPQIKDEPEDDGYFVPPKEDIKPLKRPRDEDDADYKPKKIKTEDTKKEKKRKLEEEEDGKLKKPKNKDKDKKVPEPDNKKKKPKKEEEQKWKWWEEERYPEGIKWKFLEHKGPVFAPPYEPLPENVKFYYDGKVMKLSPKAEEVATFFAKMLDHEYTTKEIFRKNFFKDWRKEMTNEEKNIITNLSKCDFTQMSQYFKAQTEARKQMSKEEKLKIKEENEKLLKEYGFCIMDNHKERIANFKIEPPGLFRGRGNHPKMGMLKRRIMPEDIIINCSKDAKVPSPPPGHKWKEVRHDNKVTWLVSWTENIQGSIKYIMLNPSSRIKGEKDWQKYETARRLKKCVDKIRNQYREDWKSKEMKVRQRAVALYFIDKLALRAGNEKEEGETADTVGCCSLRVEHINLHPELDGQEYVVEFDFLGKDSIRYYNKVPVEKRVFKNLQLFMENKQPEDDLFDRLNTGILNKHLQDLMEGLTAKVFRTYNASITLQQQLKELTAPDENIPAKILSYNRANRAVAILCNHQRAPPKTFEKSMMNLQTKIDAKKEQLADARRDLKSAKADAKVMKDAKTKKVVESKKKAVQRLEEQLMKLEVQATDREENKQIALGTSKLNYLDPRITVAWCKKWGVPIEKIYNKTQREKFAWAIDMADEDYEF
Test: Test A. Topoisomerase I Cleavage Assay
Format: biochemical
Conditions: concentration relative to compound 5 producing the same cleavage on plasmid DNA in the presence of human topoisomerase I
Description: Test A. Topoisomerase I Cleavage Assay.
Representative compounds of the invention were evaluated in a cleavage assay using recombinant topoisomerases I. This assay was preformed as described by B. Gatto et al. Cancer Res., 1996, 56, 2795-2800. Human topoisomerase I was isolated as a recombinant fusion protein using a T7 expression system. Plasmid YEpG was purified by the alkali lysis method followed by phenol deproteination and CsCl/ethidium isopycnic centrifiigation as described by Maniatis, T.; Fritsch, E. F.; Sambrook, J. Molecular Cloning, a Laboratory Manual; Cold Spring Harbor Laboratory: Cold Spring Harbor, N.Y. 1982; pp 149-185. The end-labeling of the plasmid was accomplished by digestion with a restriction enzyme followed by end-filling with Klenow polymerase as previously described by Liu, L. F.; Rowe, T. C.; Yang, L.; Tewey, K. M.; Chen, G. L. “Cleavage of DNA by mammalian topoisomerase II,” J. Biol. Chem. 1983, 258, 15365. […] Topoisomerase I cleavage values are reported as REC, Relative Effective Concentration (i.e., concentrations relative to compound 5, whose value is arbitrarily assumed as 1) that is able to produce the same cleavage on the plasmid DNA in the presence of human topoisomerase I.

Structure (SMILES): FC(F)(F)c1nc2cc(-c3nc4cc(-c5nc6cc(-c7ccccc7)ccc6[nH]5)ccc4[nH]3)ccc2[nH]1 [Compound 5, 5-Phenyl-2-[2′(2″-trifluoromethylbenzimidazol-5″yl)benzimidazol-5′-yl]benzimidazole]
- Topoisomerase I cleavage, REC (Relative Effective Concentration): 1
